From US9309179B2 (FAB PHARMA S.A.S., priority 2006, dated 2016)
pIC50: −log10 of the molar value. Values after ≈ are worked out from the molar mass of the structure shown. Where two headings read alike, the source gives them in different places.

Tests used:
E. coli CIP 76.24 = test: MIC, broth microdilution; assay type: cell-based; conditions: Escherichia coli, CIP76; broth microdilution, 37° C., 20 h; read-out: MIC E. coli CIP 76.24
Method: (§1) The compounds of the present invention are useful antibacterial agents having a selective spectrum of activity in vitro against standard bacterial strains which are used to screen for activity against pathogenic bacteria. […] The activity is presented as Minimum Inhibitory Concentration (MIC) expressed in μg/ml.
(§2) Whole-cell antimicrobial activity was determined by broth microdilution method in microtiterplates. The compound was tested in serial 4-fold dilutions ranging from 0.06 to 64 mcg/mL. Test organisms were selected from the following laboratory strains: Staphylococcus aureus CIP 76.25, Staphylococcus aureus BAA39 MDR, Staphylococcus aureus NEM 14157 PeniR, Staphylococcus aureus CIP 54.146, Escherichia coli CIP 76.24. Bacteria were tested in Tryptic Soy (TS) or Mueller Hinton (MH) broth using an inoculum of 10^4 to 10^6 UFC/mL incubated at 37° C. for 20 h.
(§3) The minimum inhibitory concentration (MIC) was determined as the lowest concentration of compound at which no visible bacteria growth is observed (90% inhibition of absorbance of at […].)

S. aureus CIP 76.25 = test: MIC, broth microdilution; assay type: cell-based; conditions: Staphylococcus aureus, CIP76; broth microdilution, 37° C., 20 h; read-out: MIC S. aureus CIP 76.25
Method: as §1, §2, §3

S. aureus 1651 LRSA* = test: MIC against resistant strains of S. aureus; assay type: cell-based; conditions: Staphylococcus aureus, read-out: MIC S. aureus 1651 LRSA*
Method: as §2, §3
(§4) In Vitro Activities Against Resistant Stains of S. aureus

S. aureus 1652 LRSA = test: MIC against resistant strains of S. aureus; assay type: cell-based; conditions: Staphylococcus aureus, read-out: MIC S. aureus 1652 LRSA
Method: as §2, §3, §4

S. aureus 2012 VISA = test: MIC against resistant strains of S. aureus; assay type: cell-based; conditions: Staphylococcus aureus, read-out: MIC S. aureus 2012 VISA
Method: as §2, §3, §4

S. aureus 2018 VISA* = test: MIC against resistant strains of S. aureus; assay type: cell-based; conditions: Staphylococcus aureus, read-out: MIC S. aureus 2018 VISA*
Method: as §2, §3, §4

S. aureus MRSA* = test: MIC against resistant strains of S. aureus; assay type: cell-based; conditions: Staphylococcus aureus, read-out: MIC S. aureus MRSA*
Method: as §2, §3, §4

S. aureus USA300 MRSA* = test: MIC against resistant strains of S. aureus; assay type: cell-based; conditions: Staphylococcus aureus, read-out: MIC S. aureus USA300 MRSA*
[1] = target: T1, recombinant E. coli FabI enzyme (Escherichia coli, UniProt P0AEK4); test: FabI inhibition, fluorescence-based NADH assay; assay type: biochemical
T1 construct: 6-His (C); made in house; host or cells: prokaryotic expression vector
Method: Compound inhibitory activity of FabI enzyme is measured in vitro by the IC50 determination using a fluorescent based assay.
The protein FabI from E. coli is prepared and purified using standard methods for recombinant protein expression after cloning of the gene in a prokaryotic expression vector.
The biochemical activity of the FabI enzyme is assessed using the following method.
The assay buffer “AB” contains 50 mM Hepes pH7.5, 100 μM Dithiothreitol, 0.006% Triton-X100. The following components are added in a black polystyrene Costar plate up to a final volume of 55 μL: 1.5 μL DMSO, or inhibitor dissolved in DMSO and 53.5 μL of a FabI/NADH/NAD+ mixture in AB. After 60 min of pre-incubation at room temperature, the reaction is started by addition of 5 μL of Crotonoyl-CoA to a final volume of 60 μL. This reaction mixture is then composed of 40 nM FabI (produced in house from E. coli, C-terminal 6-His tagged), 20 μM NADH (Biochemika), 10 μM NAD+ (Biochemika), 50 μM Crotonoyl-CoA (Biochemika) and compound at defined concentration. Fluorescence intensity of NADH (lex=360 nm, lem=520 nm) is measured immediately after Crotonoyl-CoA addition, and 2 hours later by a Fluostar Optima (BMG). Enzyme activity is proportional to the signal decrease from which inhibition percentages are derived. For IC50 determinations, the inhibitor is tested at 6 to 10 different concentrations, and the related inhibitions are fitted to a classical langmuir equilibrium model using XLFIT (IDBS).
In Vitro Inhibition of Recombinant E. coli FabI Enzyme by Selected Compounds of Formula (I).

S. aureus BAA39MDR = test: MIC, broth microdilution; assay type: cell-based; conditions: Staphylococcus aureus, broth microdilution, 37° C., 20 h, read-out: MIC S. aureus BAA39MDR
Method: as §1, §2, §3

S. aureus NEM14157 = test: MIC, broth microdilution; assay type: cell-based; conditions: Staphylococcus aureus, NEM14157; broth microdilution, 37° C., 20 h; read-out: MIC S. aureus NEM14157
Method: as §1, §2, §3

[2] = Methicillin Resistant S. aureus

T1 sequence (P0AEK4 whole entry): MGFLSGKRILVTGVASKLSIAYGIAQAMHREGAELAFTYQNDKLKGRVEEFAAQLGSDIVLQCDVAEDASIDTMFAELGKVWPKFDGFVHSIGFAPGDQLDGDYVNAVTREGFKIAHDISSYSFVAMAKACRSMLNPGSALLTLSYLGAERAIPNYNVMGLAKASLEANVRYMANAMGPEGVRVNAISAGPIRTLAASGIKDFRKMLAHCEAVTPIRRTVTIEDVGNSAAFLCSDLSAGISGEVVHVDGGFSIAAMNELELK

Compound	MIC (E. coli CIP 76.24)	MIC (S. aureus CIP 76.25)	pIC50 [1]	MIC (S. aureus BAA39MDR)	MIC (S. aureus NEM14157)	further results
CCc1ccc(Oc2ccc(NCCCO)cc2F)c(O)c1 [Example 48, 5-Ethyl-2-[2-fluoro-4-(3-hydroxy-propylamino)-phenoxy]-phenol]	4 µg/mL (≈ 13.1 µM)	0.062 µg/mL (≈ 0.203 µM)	–	–	–	MIC (S. aureus 1651 LRSA*; Linezolid resistant S. aureus): 0.12 µg/mL (≈ 0.393 µM); MIC (S. aureus 1652 LRSA; Linezolid resistant S. aureus): 0.5 µg/mL (≈ 1.64 µM); MIC (S. aureus 2012 VISA; VISA strain): 0.12 µg/mL (≈ 0.393 µM); MIC (S. aureus 2018 VISA*; VISA strain): 0.25 µg/mL (≈ 0.819 µM); MIC (S. aureus MRSA*; [2]): 0.06 µg/mL (≈ 0.196 µM); MIC (S. aureus USA300 MRSA*; [2]): 0.5 µg/mL (≈ 1.64 µM)
CN[C@H](CC(C)C)C(=O)N[C@H]1C(=O)N[C@@H](CC(N)=O)C(=O)N[C@H]2C(=O)N[C@H]3C(=O)N[C@H](C(=O)N[C@H](C(=O)O)c4cc(O)cc(O)c4-c4cc3ccc4O)[C@H](O)c3ccc(c(Cl)c3)Oc3cc2cc(c3O[C@@H]2O[C@H](CO)[C@@H](O)[C@H](O)[C@H]2O[C@H]2C[C@](C)(N)[C@H](O)[C@H](C)O2)Oc2ccc(cc2Cl)[C@H]1O [Vancomycin, reference compound]	–	–	–	–	–	MIC (S. aureus 1651 LRSA*): 1 µg/mL (≈ 0.69 µM); MIC (S. aureus 1652 LRSA): 1 µg/mL (≈ 0.69 µM); MIC (S. aureus 2012 VISA; VISA): 8 µg/mL (≈ 5.52 µM); MIC (S. aureus 2018 VISA*; VISA): 4 µg/mL (≈ 2.76 µM); MIC (S. aureus MRSA*): 1 µg/mL (≈ 0.69 µM); MIC (S. aureus USA300 MRSA*): 0.5 µg/mL (≈ 0.345 µM)
CCCc1ccc(Oc2cc(F)nc(F)c2)c(O)c1 [Example 25B, 2-[(2,6-difluoropyridin-4-yl)oxy]-5-propylphenol]	4 µg/mL (≈ 15.1 µM)	0.062 µg/mL (≈ 0.234 µM)	6.24	0.062 µg/mL (≈ 0.234 µM)	0.062 µg/mL (≈ 0.234 µM)	–
CCc1cc(O)c(Oc2cccnc2F)cc1F [Example 87, 5-Ethyl-4-fluoro-2-(2-fluoropyridin-3yloxy)phenol]	0.25 µg/mL (≈ 0.995 µM)	0.062 µg/mL (≈ 0.247 µM)	7.51	0.062 µg/mL (≈ 0.247 µM)	0.016 µg/mL (≈ 0.0637 µM)	–
CCc1cc(O)c(Oc2cccnc2N)cc1F [Example 84, 2-(2-aminopyridin-3yloxy)-5-ethyl-4-fluorophenol]	0.25 µg/mL (≈ 1.01 µM)	0.25 µg/mL (≈ 1.01 µM)	7.00	0.25 µg/mL (≈ 1.01 µM)	0.25 µg/mL (≈ 1.01 µM)	–
CCCc1ccc(Oc2cccc(F)n2)c(O)c1 [Example 5, 2-[(6-fluoropyridin-2-yl)oxy]-5-propylphenol]	4 µg/mL (≈ 16.2 µM)	0.25 µg/mL (≈ 1.01 µM)	–	0.25 µg/mL (≈ 1.01 µM)	0.25 µg/mL (≈ 1.01 µM)	pIC50 ([1]; recombinant E. coli FabI 40 nM, 60 min pre-incubation, NADH fluorescence, read-out: IC50): 6.01
CCc1ccc(Oc2cccnc2N)c(O)c1 [Example 21, 2-[(2-aminopyridin-3-yl)oxy]-5-ethylphenol]	0.25 µg/mL (≈ 1.09 µM)	0.25 µg/mL (≈ 1.09 µM)	7.16	0.25 µg/mL (≈ 1.09 µM)	0.25 µg/mL (≈ 1.09 µM)	MIC (S. aureus 1651 LRSA*; Linezolid resistant S. aureus): 0.12 µg/mL (≈ 0.521 µM); MIC (S. aureus 1652 LRSA; Linezolid resistant S. aureus): 0.5 µg/mL (≈ 2.17 µM); MIC (S. aureus 2012 VISA; VISA strain): 0.12 µg/mL (≈ 0.521 µM); MIC (S. aureus 2018 VISA*; VISA strain): 0.25 µg/mL (≈ 1.09 µM); MIC (S. aureus MRSA*; [2]): 0.12 µg/mL (≈ 0.521 µM); MIC (S. aureus USA300 MRSA*; [2]): 0.5 µg/mL (≈ 2.17 µM)
CCc1ccc(Oc2ccc(S(C)(=O)=O)cc2F)c(O)c1 [Example 64, 5-ethyl-2-[2-fluoro-4-(methylsulfonyl)phenoxy]phenol]	1 µg/mL (≈ 3.22 µM)	0.25 µg/mL (≈ 0.806 µM)	6.89	0.062 µg/mL (≈ 0.2 µM)	0.062 µg/mL (≈ 0.2 µM)	–
